For orientation: logP means the decadic logarithm of the partition coefficient of the neutral form, usually between octanol and water. Higher therefore signals higher lipophilicity.

This data set can be described thus: Measurement of logP values by HPLC on reversed phase columns (EEC directive 79/831 Annex V.A8). The conditions noted are these: pH 2.7. Format: physicochemical.
Compound `CN(CCC#N)C(=O)c1cc(-c2ncnc(Nc3cccc(C(F)(F)F)c3)n2)ccn1` [Example B363] gave a logP of 2.68.
With `CN(C)C(=O)c1cc(-c2ncnc(Nc3cccc(OC(F)(F)C(F)F)c3)n2)ccn1` [Example B364] the figure was 2.64; with `Cc1ccc(Nc2ncnc(-c3ccnc(C(=O)N(C)C(C)C)c3)n2)cc1Cl` [Example B365], 3.33.
With `Cc1ccc(Nc2ncnc(-c3ccnc(C(=O)N(C)CCC#N)c3)n2)cc1Cl` [Example B366] the figure was 2.8; with `Cc1ccc(Nc2ncnc(-c3ccnc(C(=O)N(C)CC4CC4)c3)n2)cc1Cl` [Example B367], 3.53; with `Cc1ccc(Nc2ncnc(-c3ccnc(C(=O)N(C)CC(C)C)c3)n2)cc1Cl` [Example B368], 3.78.
The compound `CN(CC(F)F)C(=O)c1cc(-c2ncnc(Nc3cccc(C#N)c3)n2)ccn1` [Example B369] yielded a logP of 2.45.
To `CN(CC(F)F)C(=O)c1cc(-c2ncnc(Nc3cccc(OC(F)F)c3)n2)ccn1` [Example B370] belongs 2.86; to `CN(CC(F)F)C(=O)c1cc(-c2ncnc(Nc3cccc(C(F)F)c3)n2)ccn1` [Example B371], 2.75; to `CSc1cccc(Nc2ncnc(-c3ccnc(C(=O)N(C)CC(F)F)c3)n2)c1` [Example B372], 2.96.
With `CN(CC(F)F)C(=O)c1cc(-c2ncnc(Nc3cccc(Cl)c3)n2)ccn1` [Example B373] the figure was 3.06.
To `CCCN(C)C(=O)c1cc(-c2ncnc(Nc3ccc(C)c(Cl)c3)n2)ccn1` [Example B374] belongs 3.42; to `CCCCN(C)C(=O)c1cc(-c2ncnc(Nc3cccc(F)c3)n2)ccn1` [Example B376], 3.09.
`CN(C)C(=O)c1cc(-c2ncnc(Nc3ccc(F)c(F)c3)n2)ccn1` [Example B377] showed a logP of 2.25.
Turning to `CCN(C)C(=O)c1cc(-c2ncnc(Nc3ccc(F)c(F)c3)n2)ccn1` [Example B378], the logP was determined as 2.55.
To `CCCN(C)C(=O)c1cc(-c2ncnc(Nc3ccc(F)c(F)c3)n2)ccn1` [Example B379] belongs 2.86.
To `CC(C)CN(C)C(=O)c1cc(-c2ncnc(Nc3ccc(F)c(F)c3)n2)ccn1` [Example B380] belongs 3.19; to `CN(CC1CC1)C(=O)c1cc(-c2ncnc(Nc3ccc(F)c(F)c3)n2)ccn1` [Example B381], 2.98.
On to `CN(CC(F)F)C(=O)c1cc(-c2ncnc(Nc3ccc(F)c(F)c3)n2)ccn1` [Example B382], for which the logP is 2.86.
Regarding `CC(C)N(C)C(=O)c1cc(-c2ncnc(Nc3ccc(F)c(F)c3)n2)ccn1` [Example B383], the logP was 2.78.
To `CN(CCC#N)C(=O)c1cc(-c2ncnc(Nc3ccc(F)c(F)c3)n2)ccn1` [Example B384] belongs 2.35.
With `CN(C)C(=O)c1cc(-c2ncnc(Nc3ccc(Cl)c(C(F)F)c3)n2)ccn1` [Example B385] the figure was 2.59; with `CCN(C)C(=O)c1cc(-c2ncnc(Nc3ccc(Cl)c(C(F)F)c3)n2)ccn1` [Example B386], 2.88.
The compound `CCCN(C)C(=O)c1cc(-c2ncnc(Nc3ccc(Cl)c(C(F)F)c3)n2)ccn1` [Example B387] had a logP of 3.23.
`CC(C)CN(C)C(=O)c1cc(-c2ncnc(Nc3ccc(Cl)c(C(F)F)c3)n2)ccn1` [Example B388] gave a logP of 3.58.
With `CN(CCC#N)C(=O)c1cc(-c2ncnc(Nc3ccc(Cl)c(C(F)F)c3)n2)ccn1` [Example B389] the figure was 2.69; with `CN(CC1CC1)C(=O)c1cc(-c2ncnc(Nc3ccc(Cl)c(C(F)F)c3)n2)ccn1` [Example B390], 3.31; with `CC(C)N(C)C(=O)c1cc(-c2ncnc(Nc3ccc(Cl)c(C(F)F)c3)n2)ccn1` [Example B391], 3.15.
To `CN(CC(F)F)C(=O)c1cc(-c2ncnc(Nc3ccc(Cl)c(C(F)F)c3)n2)ccn1` [Example B392] belongs 3.19.

The values are drawn from US20110218188A1, “SUBSTITUTED (PYRIDYL)-AZINYLAMINE DERIVATIVES AS FUNGICIDES” (priority 2008, published 2011).
